Activity calls are given as the source filed them. The calls are words filed in the database; no cut-off is given here.
Tests used:
Rattus norvegicus [1] = test: Antihypertensive activity in conscious SHR rat assessed as maximal change in tail arterial blood pressure at 50 mg/kg, iv measured at 10 mins interval relative to blood pressure obtained at preinjection; type: functional, Artery
Rattus norvegicus [2] = test: Antihypertensive activity in conscious SHR rat assessed as maximal change in tail arterial blood pressure at 20 mg/kg, iv measured at 10 mins interval relative to blood pressure obtained at preinjection; type: functional, Artery
Rattus norvegicus [3] = test: Antihypertensive activity in iv dosed conscious normotensive WKY rat assessed as maximal change in tail arterial blood pressure measured at 10 mins interval by dose-response curve analysis; type: functional; settings: Artery
Rattus norvegicus [4] = test: Induction of hypotensive effect in conscious normotensive WKY rat; type: functional, organism-based
Rattus norvegicus [5] = test: Antihypertensive activity in conscious SHR rat assessed as lowering of tail arterial mean blood pressure at 5 mg/kg during 10 to 130 mins by indirect tail-cuff method; type: functional, organism-based; set-up: dose 5 mg/kg; settings: Artery
Rattus norvegicus [6] = test: Antihypertensive activity in iv dosed conscious SHR rat assessed as maximal change in tail arterial blood pressure measured at 10 mins interval by dose-response curve analysis; type: functional; settings: Artery
Rattus norvegicus [7] = test: Antihypertensive activity in conscious SHR rat assessed as maximal change in tail arterial blood pressure at 10 mg/kg, iv measured at 10 mins interval relative to blood pressure obtained at preinjection; type: functional, Artery
Rattus norvegicus [8] = test: Induction of […] activity in conscious normotensive WKY rat assessed as maximal change in tail arterial blood pressure at 15 mg/kg, iv measured at 10 mins interval relative to blood pressure obtained at preinjection; type: functional, organism-based; set-up: dose 15 mg/kg
Rattus norvegicus [9] = test: Antihypertensive activity in conscious SHR rat assessed as maximal change in tail arterial blood pressure at 15 mg/kg, iv measured at 10 mins interval relative to blood pressure obtained at preinjection; type: functional, Artery

Row | Compound | Activity (Rattus norvegicus [1]) [mmHg] | ED50 (Rattus norvegicus [3]) [mg/kg] | Activity (Rattus norvegicus [4]) | Activity (Rattus norvegicus [5]) | Activity (Rattus norvegicus [6]) | ED50 (Rattus norvegicus [6]) [mg/kg] | other results
1 | O=C(OC[C@H]1O[C@@H](OC(=O)c2cc(O)c(O)c(O)c2)[C@H](OC(=O)c2cc(O)c(O)c(O)c2)[C@@H](OC(=O)c2cc(O)c(O)c(O)c2)[C@@H]1O)c1cc(O)c(O)c(O)c1 | 2.3 | – | – | – | – | – | –
2 | O=C1O[C@@H]2[C@@H](OC(=O)c3cc(O)c(O)c(O)c3-c3c1cc(O)c(O)c3O)[C@H](O)[C@@H](CO)O[C@H]2O | -5.5 | – | – | – | – | – | –
3 | O=C(OC[C@H]1O[C@@H](O)[C@H](OC(=O)c2cc(O)c(O)c(O)c2)[C@@H](OC(=O)c2cc(O)c(O)c(O)c2)[C@@H]1OC(=O)c1cc(O)c(O)c(O)c1)c1cc(O)c(O)c(O)c1 | -5.2 | – | – | – | – | – | –
4 | O=C(O[C@@H]1[C@@H](OC(=O)c2cc(O)c(O)c(O)c2)[C@H](O)[C@@H](CO)O[C@H]1O)c1cc(O)c(O)c(O)c1 | 4.52 | – | – | – | – | – | –
5 | O=C1OC[C@H]2OC(=O)c3cc(O)c(O)c(O)c3-c3c(O)c(O)c(O)c4c3C(=O)O[C@H]([C@H]3OC(=O)c5c-4c(O)c(O)c(O)c5[C@H]3O)[C@@H]2OC(=O)c2cc(O)c(O)c(O)c2-c2c1cc(O)c(O)c2O [CASTALAGIN] | – | 6.4 | Active | Active | Dose-dependent effect | 6.3 | Activity (Rattus norvegicus [2]): -49.6 mmHg
6 | O=C(O)C[C@@H]1C(=O)O[C@H]2[C@@H]3OC(=O)c4cc(O)c(O)c(O)c4-c4c(cc(O)c(O)c4O)C(=O)OC[C@H]2O[C@@H](OC(=O)c2cc(O)c(O)c(O)c2)[C@@H]3OC(=O)c2cc(O)c(O)c3c2[C@H]1[C@H](O)C(=O)O3 [CHEBULAGIC ACID] | -6.5 | – | – | – | – | – | –
7 | O=C(O)C[C@H]1C(=O)O[C@H]2[C@H](OC(=O)c3cc(O)c(O)c(O)c3)[C@@H](OC(=O)c3cc(O)c(O)c4c3[C@H]1[C@H](O)C(=O)O4)[C@H](OC(=O)c1cc(O)c(O)c(O)c1)O[C@@H]2COC(=O)c1cc(O)c(O)c(O)c1 [CHEBULINIC ACID] | – | 3.4 | Active | Active | Dose-dependent effect | 3.2 | Activity (Rattus norvegicus [7]): -76.9 mmHg
8 | O=C(O[C@@H]1O[C@@H]2COC(=O)c3cc(O)c(O)c(O)c3-c3c(cc(O)c(O)c3O)C(=O)O[C@H]([C@H]1O)[C@@H]2O)c1cc(O)c(O)c(O)c1 [CORILAGIN] | – | 6.5 | Active | Active | Dose-dependent effect | 6.7 | Activity (Rattus norvegicus [2]): -52.6 mmHg
9 | O=C(OC[C@H]1O[C@@H](OC(=O)c2cc(O)c(O)c(O)c2)[C@H](OC(=O)c2cc(O)c(O)c(O)c2)[C@@H](OC(=O)c2cc(O)c(O)c(O)c2)[C@@H]1OC(=O)c1cc(O)c(O)c(O)c1)c1cc(O)c(O)c(O)c1 [PENTAGALLOYL GLUCOSE] | -7.1 | – | – | – | – | – | –
10 | O=C1O[C@@H]2[C@@H](OC(=O)c3cc(O)c(O)c(O)c3-c3c1cc(O)c(O)c3O)[C@H](O)O[C@@H]1COC(=O)c3cc(O)c(O)c(O)c3-c3c(O)c(O)c4oc(=O)c5c(c(O)c(O)c6oc(=O)c3c4c65)-c3c(cc(O)c(O)c3O)C(=O)O[C@@H]21 [PUNICALAGIN] | – | – | – | – | – | 5.4 | Activity (Rattus norvegicus [8]): Active; Activity (Rattus norvegicus [9]): -63.4 mmHg

From ChEMBL document CHEMBL1147357, “Antihypertensive Activity of Corilagin and Chebulinic Acid, Tannins from Lumnitzera, racemosa” (1993)
